Data: patent US20210070748A1, “INHIBITORS OF BRUTONS TYROSINE KINASE” (Pharmacyclics LLC, priority 2015, published 2021)
pIC50: −log10 of the molar value. Where a name gives a salt, the structure may show the parent alone. Read-outs that look alike come from different tables or passages of the source.

Experiments:
Format in all cases: biochemical
BTK-WT = target: T1, BTK-WT (Homo sapiens, UniProt Q06187); assay: Btk in vitro inhibitory activity (one of Method A TR-FRET, Method B electrophoretic mobility shift, Method C radiometric filter binding); details: read-out: BTK-WT (IC50)
T1 construct: purified from insect cells as a full-length construct containing an N-terminal 6X-His tag; His6 (N); made in house; host or cells: insect cells (baculovirus Sf21 in Method B)

JAK3 = target: T2, JAK3 (Homo sapiens, UniProt P52333); assay: Inhibition of a panel of kinases, in vitro HotSpot kinase assay: JAK3; details: 1 μM ATP, read-out: JAK3 (IC50)
T2 sequence (P52333 1-1124): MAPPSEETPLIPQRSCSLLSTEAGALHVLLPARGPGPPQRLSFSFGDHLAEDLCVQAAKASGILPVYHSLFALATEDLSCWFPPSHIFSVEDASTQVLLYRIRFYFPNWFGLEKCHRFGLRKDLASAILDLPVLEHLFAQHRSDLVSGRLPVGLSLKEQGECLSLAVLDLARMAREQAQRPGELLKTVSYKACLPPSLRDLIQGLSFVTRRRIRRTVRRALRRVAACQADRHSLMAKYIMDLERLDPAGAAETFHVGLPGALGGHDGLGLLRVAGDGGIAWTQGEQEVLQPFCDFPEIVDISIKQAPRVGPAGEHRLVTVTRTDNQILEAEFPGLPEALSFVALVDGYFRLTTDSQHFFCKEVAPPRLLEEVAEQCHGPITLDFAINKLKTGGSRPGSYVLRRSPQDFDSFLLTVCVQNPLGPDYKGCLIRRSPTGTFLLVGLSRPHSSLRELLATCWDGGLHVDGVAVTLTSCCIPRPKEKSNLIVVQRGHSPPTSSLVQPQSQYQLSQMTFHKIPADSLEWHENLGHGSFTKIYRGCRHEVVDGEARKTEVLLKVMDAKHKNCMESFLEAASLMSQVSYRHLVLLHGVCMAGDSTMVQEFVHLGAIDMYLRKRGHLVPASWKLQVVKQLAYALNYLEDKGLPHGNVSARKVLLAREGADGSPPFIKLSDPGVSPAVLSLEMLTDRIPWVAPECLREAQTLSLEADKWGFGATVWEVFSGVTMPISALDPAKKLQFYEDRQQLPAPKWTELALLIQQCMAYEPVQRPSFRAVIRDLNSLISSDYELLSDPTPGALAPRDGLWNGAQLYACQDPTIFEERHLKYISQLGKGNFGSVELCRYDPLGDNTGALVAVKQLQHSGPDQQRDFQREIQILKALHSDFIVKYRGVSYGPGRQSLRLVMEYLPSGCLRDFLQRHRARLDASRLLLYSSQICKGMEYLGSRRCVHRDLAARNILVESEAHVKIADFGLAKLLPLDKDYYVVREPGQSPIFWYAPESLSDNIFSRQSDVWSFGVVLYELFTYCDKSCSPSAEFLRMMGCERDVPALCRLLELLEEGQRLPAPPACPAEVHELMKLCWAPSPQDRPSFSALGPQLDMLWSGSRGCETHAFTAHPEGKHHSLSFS

LCK = LCK (Homo sapiens, UniProt P06239); assay: Inhibition of a panel of kinases, in vitro HotSpot kinase assay: LCK; details: 1 μM ATP, read-out: LCK (IC50)
LCK, sequence (P06239 whole entry): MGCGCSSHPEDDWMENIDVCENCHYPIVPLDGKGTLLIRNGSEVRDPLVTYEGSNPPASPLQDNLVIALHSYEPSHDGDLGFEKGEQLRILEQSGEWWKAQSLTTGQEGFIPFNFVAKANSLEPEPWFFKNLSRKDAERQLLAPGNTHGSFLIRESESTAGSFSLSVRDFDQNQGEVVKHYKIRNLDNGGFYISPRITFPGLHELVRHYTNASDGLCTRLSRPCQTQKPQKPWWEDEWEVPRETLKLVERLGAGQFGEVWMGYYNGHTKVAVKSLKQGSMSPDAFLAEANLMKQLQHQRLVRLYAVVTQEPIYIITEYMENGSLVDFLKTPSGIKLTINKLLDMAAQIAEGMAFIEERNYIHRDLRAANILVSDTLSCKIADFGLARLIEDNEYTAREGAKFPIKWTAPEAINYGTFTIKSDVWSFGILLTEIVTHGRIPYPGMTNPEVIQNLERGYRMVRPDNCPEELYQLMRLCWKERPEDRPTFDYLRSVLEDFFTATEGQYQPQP

T1 sequence (Q06187 whole entry): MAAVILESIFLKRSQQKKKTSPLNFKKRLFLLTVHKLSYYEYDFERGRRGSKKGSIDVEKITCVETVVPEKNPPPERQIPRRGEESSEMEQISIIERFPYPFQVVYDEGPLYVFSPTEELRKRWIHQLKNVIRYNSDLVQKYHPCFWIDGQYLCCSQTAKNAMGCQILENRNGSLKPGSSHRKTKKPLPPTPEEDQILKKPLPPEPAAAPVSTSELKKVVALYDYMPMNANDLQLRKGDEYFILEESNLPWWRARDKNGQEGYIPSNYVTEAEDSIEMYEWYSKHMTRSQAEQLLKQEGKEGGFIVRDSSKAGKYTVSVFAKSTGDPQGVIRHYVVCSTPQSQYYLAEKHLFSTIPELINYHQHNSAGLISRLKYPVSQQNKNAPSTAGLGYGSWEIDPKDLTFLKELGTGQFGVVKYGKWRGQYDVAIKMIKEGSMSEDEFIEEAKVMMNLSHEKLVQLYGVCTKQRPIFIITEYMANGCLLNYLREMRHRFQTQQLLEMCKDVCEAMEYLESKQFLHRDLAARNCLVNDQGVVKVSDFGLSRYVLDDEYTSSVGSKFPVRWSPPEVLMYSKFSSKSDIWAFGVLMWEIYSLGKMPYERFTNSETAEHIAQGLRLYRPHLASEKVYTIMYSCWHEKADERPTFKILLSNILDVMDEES

Row | Compound | pIC50 (BTK-WT; Table 10, Formula A-I) | pIC50 (JAK3; Table 10, Formula A-I) | pIC50 (LCK; Table 10, Formula A-I) | also measured
1 | Cc1cc(Nc2nc(N3CCC[C@@H](NC(=O)N4Cc5ccccc5C4)C3)cnc2C(N)=O)sn1 [Example A-17, N-[(3R)-1-{5-carbamoyl-6-[(3-methyl-1,2-thiazol-5-yl)amino]pyrazin-2-yl}piperidin-3-yl]-2,3-dihydro-1H-isoindole-2-carboxamide] | ≥ 7.00 | 6.00 to 7.00 | 6.00 to 7.00 | 
2 | Cc1cc(Nc2nc(NC3CCC(NC(=O)c4ccc(N(C)C)cc4)CC3)cnc2C(N)=O)sn1 (stereo not drawn) [Example B-5, 5-({4-[4-(dimethylamino)benzamido]cyclohexyl}amino)-3-[(3-methyl-1,2-thiazol-5-yl)amino]pyrazine-2-carboxamide] |  |  |  | pIC50 (BTK-WT; Table 11, Formula B-I): ≥ 7.00; pIC50 (JAK3; Table 11, Formula B-I): > 7.00; pIC50 (LCK; Table 11, Formula B-I): 6.00 to 7.00
3 | C[C@H]1[C@@H](NC(=O)N(C)C)CCCN1c1cnc(C(N)=O)c(Nc2ccc3ncccc3c2)n1 [Example A-60, 5-[(2S,3S)-3-[(dimethylcarbamoyl)amino]-2-methylpiperidin-1-yl]-3-[(quinolin-6-yl)amino]pyrazine-2-carboxamide] | 6.00 to 7.00 | 5.00 to 6.00 | < 5.00 | 
4 | Cc1cc(Nc2nc(N[C@@H]3CCCN(C(=O)c4ccc(N(C)C)cc4)C3)cnc2C(N)=O)sn1 [Example C-7, 5-{[(3R)-1-[4-(dimethylamino)benzoyl]piperidin-3-yl]amino}-3-[(3-methyl-1,2-thiazol-5-yl)amino]pyrazine-2-carboxamide hydrochloride] |  |  |  | pIC50 (BTK-WT; Table 12, Formula C-I): < 5.00; pIC50 (JAK3; Table 12, Formula C-I): < 5.00; pIC50 (LCK; Table 12, Formula C-I): < 5.00
5 | Cc1cc(Nc2nc(N3CCC[C@@H](NC(=O)c4ccc(N(C)C)cc4)C3)cnc2C(N)=O)sn1 [Example A-21, 5-[(3R)-3-[4-(dimethylamino)benzamido]piperidin-1-yl]-3-[(3-methyl-1,2-thiazol-5-yl)amino]pyrazine-2-carboxamide] | ≥ 7.00 | 6.00 to 7.00 | < 5.00 | 
6 | NC(=O)c1ncc(N2CCC[C@@H](NC(=O)c3ccccc3)C2)nc1Nc1ccc2ncccc2c1 [Example A-45, 5-[(3R)-3-benzamidopiperidin-1-yl]-3-[(quinolin-6-yl)amino]pyrazine-2-carboxamide] | ≥ 7.00 | 5.00 to 6.00 | < 5.00 | 
7 | CN(C)c1ccc(C(=O)N[C@@H]2CCCN(c3cnc(C(N)=O)c(Nc4ccc(C5CCN(C6CCCC6)CC5)cc4)n3)C2)cc1 [Example A-7, 3-{[4-(1-cyclopentylpiperidin-4-yl)phenyl]amino}-5-[(3R)-3-[4-(dimethylamino)benzamido]piperidin-1-yl]pyrazine-2-carboxamide hydrochloride] | ≥ 7.00 | 6.00 to 7.00 | 6.00 to 7.00 | 
8 | Cc1cc(Nc2nc(N3CCC[C@@H](NC(=O)C4CCCCC4)C3)cnc2C(N)=O)sn1 [Example A-28, 5-[(3R)-3-cyclohexaneamidopiperidin-1-yl]-3-[(3-methyl-1,2-thiazol-5-yl)amino]pyrazine-2-carboxamide] | ≥ 7.00 | 5.00 to 6.00 | 6.00 to 7.00 | 
9 | Cc1cc(Nc2nc(N3CCC[C@H](NC(=O)c4ccc(N(C)C)cc4)[C@@H]3C)cnc2C(N)=O)sn1 [Example A-54, 5-[(2S,3S)-3-[4-(dimethylamino)benzamido]-2-methylpiperidin-1-yl]-3-[(3-methyl-1,2-thiazol-5-yl)amino]pyrazine-2-carboxamide] | ≥ 7.00 | 5.00 to 6.00 | 6.00 to 7.00 | 
10 | C=CC(=O)N1CC[C@H](Nc2nnc(C(N)=O)c(Nc3cccc(C(=O)Nc4ccc(C(C)C)c(C)c4)c3)n2)C1 [Example C-29, (S)-3-(1-acryloylpyrrolidin-3-ylamino)-5-(3-(4-isopropyl-3-methylphenyl-carbamoyl)phenyl-amino)-1,2,4-triazine-6-carboxamide] |  |  |  | pIC50 (BTK-WT; Table 12, Formula C-I): ≥ 7.00; pIC50 (JAK3; Table 12, Formula C-I): > 7.00; pIC50 (LCK; Table 12, Formula C-I): < 5.00
11 | Cc1cc(Nc2nc(N3CC[C@@H](NC(=O)N(C)C)C3)cnc2C(N)=O)sn1 [Example A-51, 5-[(3R)-3-[(dimethylcarbamoyl)amino]pyrrolidin-1-yl]-3-[(3-methyl-1,2-thiazol-5-yl)amino]pyrazine-2-carboxamide] | 5.00 to 6.00 | < 5.00 | < 5.00 | 
12 | CS(=O)(=O)c1ccc(Nc2nc(N3CCC[C@@H](N4CCN(c5cccc(Cl)c5)C4=O)C3)cnc2C(N)=O)cc1 [Example A-53, 5-[(3R)-3-[3-(3-chlorophenyl)-2-oxoimidazolidin-1-yl]piperidin-1-yl]-3-[(4-methanesulfonylphenyl)amino]pyrazine-2-carboxamide] | ≥ 7.00 | 5.00 to 6.00 | > 7.00 | 
13 | Cc1cccc(NC(=O)N[C@@H]2CCCN(c3cnc(C(N)=O)c(Nc4cc(C)ns4)n3)C2)c1 [Example A-10, 3-[(3-methyl-1,2-thiazol-5-yl)amino]-5-[(3R)-3-{[(3-methylphenyl)carbamoyl]amino}piperidin-1-yl]pyrazine-2-carboxamide] | ≥ 7.00 | 5.00 to 6.00 | 6.00 to 7.00 | 
14 | CN1CCN(C(=O)c2ccc(Nc3nc(N[C@H]4CC[C@H](NC(=O)c5ccc(C6CC6)cc5F)CC4)cnc3C(N)=O)cc2)CC1 [Example B-14, 5-((1r,4r)-4-(4-cyclo-propyl-2-fluoro-benzamido)cyclohexyl-amino)-3-(4-(4-methylpiperazine-1-carbonyl)phenylamino) pyrazine-2-carboxamide] |  |  |  | pIC50 (BTK-WT; Table 11, Formula B-I): ≥ 7.00; pIC50 (JAK3; Table 11, Formula B-I): 6.00 to 7.00; pIC50 (LCK; Table 11, Formula B-I): 6.00 to 7.00
15 | C=CC(=O)N1CC[C@@H](Nc2nnc(C(N)=O)c(Nc3cccc(C(=O)Nc4ccc(C(C)C)c(C)c4)c3)n2)C1 [Example C-30, (R)-3-(1-acryloylpyrrolidin-3-ylamino)-5-(3-(4-isopropyl-3-methylphenyl-carbamoyl)phenyl-amino)-1,2,4-triazine-6-carboxamide] |  |  |  | pIC50 (BTK-WT; Table 12, Formula C-I): ≥ 7.00; pIC50 (JAK3; Table 12, Formula C-I): 6.00 to 7.00; pIC50 (LCK; Table 12, Formula C-I): < 5.00
16 | Cc1cc(Nc2nc(N[C@@H]3CCCNC3)cnc2C(N)=O)sn1 [Example C-1, 3-[(3-methyl-1,2-thiazol-5-yl)amino]-5-{[(3R)-piperidin-3-yl]amino}pyrazine-2-carboxamide] |  |  |  | pIC50 (BTK-WT; Table 12, Formula C-I): ≥ 7.00; pIC50 (JAK3; Table 12, Formula C-I): > 7.00; pIC50 (LCK; Table 12, Formula C-I): > 7.00
17 | Cc1cc(Nc2nc(N3CCC(CNC(=O)c4ccccc4)CC3)cnc2C(N)=O)sn1 [Example A-76, 3-[(3-methyl-1,2-thiazol-5-yl)amino]-5-{4-[(phenylformamido)methyl]piperidin-1-yl}pyrazine-2-carboxamide] | ≥ 7.00 | > 7.00 | 6.00 to 7.00 | 
18 | CN1CCN(C(=O)c2ccc(Nc3nc(N[C@H]4CC[C@@H](NC(=O)N(C)C)CC4)cnc3C(N)=O)cc2)CC1 [Example B-16, 5-((1s,4s)-4-(3,3-dimethyl-ureido)cyclohexyl-amino)-3-(4-(4-methylpiperazine-1-carbonyl)phenylamino) pyrazine-2-carboxamide] |  |  |  | pIC50 (BTK-WT; Table 11, Formula B-I): ≥ 7.00; pIC50 (JAK3; Table 11, Formula B-I): 5.00 to 6.00; pIC50 (LCK; Table 11, Formula B-I): > 7.00
19 | C=CC(=O)N1CC[C@@H](Nc2nnc(C(N)=O)c(Nc3ccc(C(C)C)cc3)n2)C1 [Example C-32, (R)-3-(1-acryloylpyrrolidin-3-ylamino)-5-(4-isopropylphenylamino)-1,2,4-triazine-6-carboxamide] |  |  |  | pIC50 (BTK-WT; Table 12, Formula C-I): ≥ 7.00; pIC50 (JAK3; Table 12, Formula C-I): > 7.00; pIC50 (LCK; Table 12, Formula C-I): 6.00 to 7.00
20 | Cc1ccc(C(=O)N[C@@H]2CCCN(c3cnc(C(N)=O)c(Nc4cc(C)ns4)n3)C2)c(F)c1 [Example A-24, 5-[(3R)-3-(2-fluoro-4-methylbenzamido)piperidin-1-yl]-3-[(3-methyl-1,2-thiazol-5-yl)amino]pyrazine-2-carboxamide] | ≥ 7.00 | < 5.00 | < 5.00 | 
21 | Cc1cc(Nc2nc(N3CCC[C@@H](NC(=O)c4ccc(N5CCCC5)cc4)C3)cnc2C(N)=O)sn1 [Example A-26, 3-[(3-methyl-1,2-thiazol-5-yl)amino]-5-[(3R)-3-[4-(pyrrolidin-1-yl)benzamido]piperidin-1-yl]pyrazine-2-carboxamide] | ≥ 7.00 | 5.00 to 6.00 | < 5.00 | 
